Reference: publication PMC9298352, “Design, Synthesis and Structural Analysis of Glucocerebrosidase Imaging Agents” (Chemistry (Weinheim an Der Bergstrasse, Germany), 2021)

Molecular target: T1, GBA2 in mouse brain lysate (Mus musculus, UniProt Q69ZF3)
T1 construct: from tissue; host or cells: mouse brain
T1 sequence (Q69ZF3 1-918): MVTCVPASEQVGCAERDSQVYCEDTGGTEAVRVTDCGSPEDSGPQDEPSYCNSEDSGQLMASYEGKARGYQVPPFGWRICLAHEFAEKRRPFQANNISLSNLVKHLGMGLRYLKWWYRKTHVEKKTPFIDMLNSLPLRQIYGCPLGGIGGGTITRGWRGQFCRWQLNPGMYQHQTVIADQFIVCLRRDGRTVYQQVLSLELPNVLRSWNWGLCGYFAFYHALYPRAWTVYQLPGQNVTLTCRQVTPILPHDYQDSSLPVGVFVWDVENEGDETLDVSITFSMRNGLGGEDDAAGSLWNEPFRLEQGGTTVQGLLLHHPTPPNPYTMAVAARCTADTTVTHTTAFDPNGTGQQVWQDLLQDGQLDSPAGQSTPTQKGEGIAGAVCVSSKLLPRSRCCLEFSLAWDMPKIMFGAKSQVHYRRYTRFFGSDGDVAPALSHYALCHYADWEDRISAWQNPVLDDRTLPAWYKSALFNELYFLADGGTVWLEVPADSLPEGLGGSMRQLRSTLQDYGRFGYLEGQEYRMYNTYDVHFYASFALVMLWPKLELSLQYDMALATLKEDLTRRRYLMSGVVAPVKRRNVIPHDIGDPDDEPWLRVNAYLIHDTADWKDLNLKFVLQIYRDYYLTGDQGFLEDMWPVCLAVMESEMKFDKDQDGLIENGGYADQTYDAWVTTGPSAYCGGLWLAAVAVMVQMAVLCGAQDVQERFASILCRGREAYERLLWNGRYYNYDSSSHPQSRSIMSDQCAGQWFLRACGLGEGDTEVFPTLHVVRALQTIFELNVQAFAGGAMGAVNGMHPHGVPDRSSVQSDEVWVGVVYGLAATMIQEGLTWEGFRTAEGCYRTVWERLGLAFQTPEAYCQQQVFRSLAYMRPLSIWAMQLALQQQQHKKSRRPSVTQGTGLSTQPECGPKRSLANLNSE
Test: Fluorescent labeling of mouse brain lysate, GBA2
Assay type: biochemical
Settings: 30 min, 37 °C
Description: We next investigated their labeling efficiency and selectivity toward GBA in mouse brain lysate at pH 5.2 (containing 0.2 % taurocholate and 0.1 % Triton‐100) and pH 5.8 as respective optimal conditions for GBA and GBA2 activities (Figure 7). […] Importantly, no labelling of GBA2 was observed up to 1000 nM, showing good GBA selectivity.
Labeling by broad‐spectrum β‐glucosidase ABP 8 is shown for comparison (100 nM, pH 5.2 or pH 5.8, 30 min, 37 °C).
Fluorescent labeling with broad‐spectrum ABP 8 was performed at 100 nM ABP concentration at 37 °C for 30 min at pH 5.2 (with 0.1 % (v/v) Triton X‐100 and 0.2 % (w/v) sodium taurocholate) or pH 5.8 respectively. Samples were then denatured with 4 μL Laemmli (5x) sample buffer and heated at 98 °C for 5 minutes. Proteins were resolved by electrophoresis in 10 % SDS‐PAGE gels, running at a constant of 90 V for 30 minutes followed by 120 V for approximately 60 minutes. Wet slab gels were scanned on fluorescence using a Typhoon FLA9500 Imager (GE Healthcare) using λEX 635 nm; λEM >665 nm and images were processed using ImageLab 5.2.1 (BioRad).

## CCCCCCCCN1[C@@H]2[C@H](Cn3cc(CNC(=O)CCCCC[N+]4=C(/C=C/C=C/C=C5/N(C)c6ccccc6C5(C)C)C(C)(C)c5ccccc54)nn3)[C@@H](O)[C@H](O)[C@@H](O)[C@@H]21 (stereo partly shown) [ABP 6]
  ABP concentration up to which no labelling of GBA2 was observed: > 1000 nM
